For 1 compound, IC50 results are on record in BindingDB's records for doi:10.1021/jm401195n (Fudan University, 2013).

For the assay, the target named is Indoleamine 2,3-dioxygenase 1 (Homo sapiens, UniProt P14902). The assay can be described thus: Inhibition of human IDO1 expressed in HEK293 cells assessed as kynurenine release after 5 hrs by spectrophotometry.

SMILES strings stand for the structures. pIC50: −log10 of the molar value.

Sequence of Indoleamine 2,3-dioxygenase 1 (P14902 whole entry): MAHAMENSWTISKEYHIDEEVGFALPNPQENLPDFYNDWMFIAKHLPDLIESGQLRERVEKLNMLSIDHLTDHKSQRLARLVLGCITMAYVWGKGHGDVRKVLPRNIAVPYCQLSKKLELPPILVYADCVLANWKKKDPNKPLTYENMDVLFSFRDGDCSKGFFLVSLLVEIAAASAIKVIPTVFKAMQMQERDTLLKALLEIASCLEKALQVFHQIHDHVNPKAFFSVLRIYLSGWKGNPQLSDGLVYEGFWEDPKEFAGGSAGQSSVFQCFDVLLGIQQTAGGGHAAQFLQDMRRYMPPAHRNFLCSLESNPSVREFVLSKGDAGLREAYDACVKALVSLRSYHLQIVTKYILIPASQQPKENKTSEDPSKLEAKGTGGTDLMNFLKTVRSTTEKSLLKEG

Usually pIC50 stands for the IC50 on a negative log10 scale, so that one unit is a factor of ten. As for `O=C1c2cc([N+](=O)[O-])ccc2-n2c1nc1ccccc1c2=O`, the pIC50 was 10.74.
